In ChEMBL document CHEMBL1681671, “Substrate-controlled chemoselective synthesis and potent cytotoxic activity of novel 5,6,7-triarylpyrido[2,3-d]pyrimidin-4-one derivatives” (Bioorg Med Chem Lett, 2011):
Values after ≈ are worked out from the molar mass of the structure shown.

Columns and labels:
[1] = Cytotoxicity against human SW1116 cells assessed as cell proliferation inhibition rate at 0.1 ug/ml after 24 hrs by MTT assay; format: functional; details: SW 1116, 24 h
[2] = Cytotoxicity against human SW1116 cells assessed as cell proliferation inhibition rate at 1 ug/ml after 24 hrs by MTT assay; format: functional; details: SW 1116, 24 h
[3] = Cytotoxicity against human SW1116 cells assessed as cell proliferation inhibition rate at 10 ug/ml after 24 hrs by MTT assay; format: functional; details: SW 1116, 24 h
[4] = system: SGC-7901; assay: Cytotoxicity against human SGC7901 cells assessed as cell mortality after 20 hrs by MTT assay; format: functional, cell-based; details: SGC-7901, 20 h

Structure (SMILES): Nc1nc2c(c(=O)[nH]1)C(c1ccc(F)cc1)C(c1ccccc1)=C(c1ccccc1)N2 (stereo unspecified)
- inhibition at 0.1 µg/mL [1]: 31.6%
- inhibition at 1 µg/mL [2]: 17.6%
- inhibition at 10 µg/mL [3]: 50.3%
- IC50 [4]: 13 µg/mL (≈ 31.8 µM)

Structure (SMILES): Nc1nc2c(c(=O)[nH]1)C(c1ccc(Br)cc1)C(c1ccccc1)=C(c1ccccc1)N2 (stereo unspecified)
- inhibition at 0.1 µg/mL [1]: 19.8%
- inhibition at 1 µg/mL [2]: 19.3%
- inhibition at 10 µg/mL [3]: 12%
- IC50 [4]: 0.074 µg/mL (≈ 0.157 µM)

Structure (SMILES): Nc1nc2c(c(=O)[nH]1)C(c1ccc(Cl)cc1)C(c1ccccc1)=C(c1ccccc1)N2 (stereo unspecified)
- inhibition at 0.1 µg/mL [1]: 14.9%
- inhibition at 1 µg/mL [2]: 25.1%
- inhibition at 10 µg/mL [3]: 25.5%
- IC50 [4]: 0.104 µg/mL (≈ 0.244 µM)

Structure (SMILES): COc1ccc(C2C(c3ccccc3)=C(c3ccccc3)Nc3nc(N)[nH]c(=O)c32)cc1 (stereo unspecified)
- inhibition at 0.1 µg/mL [1]: 43%
- inhibition at 1 µg/mL [2]: 29.1%
- inhibition at 10 µg/mL [3]: 42.8%
- IC50 [4]: 0.341 µg/mL (≈ 0.807 µM)

Structure (SMILES): CN(C)c1ccc(C2C(c3ccccc3)=C(c3ccccc3)Nc3nc(N)[nH]c(=O)c32)cc1 (stereo unspecified)
- inhibition at 0.1 µg/mL [1]: 20.5%
- inhibition at 1 µg/mL [2]: 27.9%
- inhibition at 10 µg/mL [3]: 14%
- IC50 [4]: 0.79 µg/mL (≈ 1.81 µM)

Structure (SMILES): Nc1nc2c(c(=O)[nH]1)C(c1ccc3c(c1)OCO3)C(c1ccccc1)=C(c1ccccc1)N2 (stereo unspecified)
- inhibition at 0.1 µg/mL [1]: 15.1%
- inhibition at 1 µg/mL [2]: 34.6%
- inhibition at 10 µg/mL [3]: 20.6%
- IC50 [4]: 0.09 µg/mL (≈ 0.206 µM)

Structure (SMILES): Nc1nc2c(c(=O)[nH]1)C(c1cccs1)C(c1ccccc1)=C(c1ccccc1)N2 (stereo unspecified)
- inhibition at 0.1 µg/mL [1]: 22.4%
- inhibition at 1 µg/mL [2]: 37.2%
- inhibition at 10 µg/mL [3]: 48.3%
- IC50 [4]: 0.108 µg/mL (≈ 0.271 µM)

Structure (SMILES): COc1ccccc1[C@@H]1c2c(nc(N)[nH]c2=O)N=C(c2ccccc2)[C@H]1c1ccccc1 (racemic)
- inhibition at 0.1 µg/mL [1]: 22.4%
- inhibition at 1 µg/mL [2]: 6.47%
- inhibition at 10 µg/mL [3]: 31.6%
- IC50 [4]: 0.359 µg/mL (≈ 0.85 µM)

Structure (SMILES): COc1ccc([C@@H]2c3c(nc(N)[nH]c3=O)N=C(c3ccccc3)[C@H]2c2ccccc2)cc1OC (racemic)
- inhibition at 0.1 µg/mL [1]: 2.24%
- inhibition at 1 µg/mL [2]: 13.8%
- inhibition at 10 µg/mL [3]: 23.9%
- IC50 [4]: 0.606 µg/mL (≈ 1.34 µM)

Structure (SMILES): COc1cc([C@@H]2c3c(nc(N)[nH]c3=O)N=C(c3ccccc3)[C@H]2c2ccccc2)cc(OC)c1OC (racemic)
- inhibition at 0.1 µg/mL [1]: 21.8%
- inhibition at 1 µg/mL [2]: 16.7%
- inhibition at 10 µg/mL [3]: 36.9%
- IC50 [4]: 2.98 µg/mL (≈ 6.17 µM)

Structure (SMILES): Nc1nc2c(c(=O)[nH]1)[C@@H](c1ccccc1Cl)[C@H](c1ccccc1)C(c1ccccc1)=N2 (racemic)
- inhibition at 0.1 µg/mL [1]: 31.8%
- inhibition at 1 µg/mL [2]: 27.3%
- inhibition at 10 µg/mL [3]: 38.7%
- IC50 [4]: 1.56 µg/mL (≈ 3.67 µM)

Structure (SMILES): COc1cccc2c1C(=O)c1c(O)c3c(c(O)c1C2=O)C[C@@](O)(C(=O)CO)C[C@@H]3O[C@H]1C[C@H](N)[C@H](O)[C@H](C)O1.Cl [DOXORUBICIN HYDROCHLORIDE]
- inhibition at 10 µg/mL [3]: 28.5%
- IC50 [4]: 0.078 µg/mL
